Assay results as given in patent publication US20140336253A1, “COMPOSITION FOR TRANSDERMAL ADMINISTRATION OF RIVASTIGMINE” (priority 2011, published 2014).

Test: Transdermal delivery and tolerability of Rivastigmine patches
Format: in vivo

CCN(C)C(=O)Oc1cccc([C@H](C)N(C)C)c1 [Rivastigmine, (S)-{3-[α-(Dimethylamino)ethyl]phenyl}-N-ethyl-N-methylcarbamate]
tolerability (dose of 36 mg free base in up to 80 cm^2 of patches): well tolerated | amount absorbed (patches containing 36 mg Rivastigmine, up to 80 cm^2): 12 mg
